{"source": "patent US20140297199A1", "about": "“DRUG SCREENING METHOD AND USES THEREOF” (COLD SPRING HARBOR LABORATORY, priority 2011, published 2014)", "system": "c-fos-GFP expression in the mouse brain", "test": "c-fos-GFP pharmacomaps of three antipsychotics at a moderate dosage (Example 9)", "conditions": "5 mouse brains per drug; for brain regions activated (pharmacomap): haloperidol 0.25 mg/kg, risperidone 1.0 mg/kg, aripiprazole 1.0 mg/kg, vs saline; for c-fos-GFP activation, Anterior cingulate cortex (ACAd) / c-fos-GFP activation, Anterior cingulate cortex (ACAv) / c-fos-GFP activation, Basal, Central, Cortic. Amydgala (AMG) / c-fos-GFP activation, Bed nucleus of Stria Terminalis (BST) / c-fos-GFP activation, Caudate-putamen (CP, dorso-medial) / c-fos-GFP activation, Caudate-putamen (CP, ventro-medial) / c-fos-GFP activation, Caudoputamen (CP, dorsolateral) / c-fos-GFP activation, Caudoputamen (CP, ventrolateral) / c-fos-GFP activation, Central medial thalamic nucleus / c-fos-GFP activation, Claustrum (CLA) / c-fos-GFP activation, Dorsomedial hypoth. (HYP) / c-fos-GFP activation, Gostatory Cx (GU) / c-fos-GFP activation, Hippocampus: CA1, CA2, CA3 (HF) / c-fos-GFP activation, Hippocampus: DG / c-fos-GFP activation, Hypothalamus, ventromedial nuclei / c-fos-GFP activation, Infralimbic cortex (IL) / c-fos-GFP activation, Insular area, agranular / c-fos-GFP activation, Lateral Septum (LS) / c-fos-GFP activation, Lateral Spetal Nucl, dorsal part / c-fos-GFP activation, Midline Thalamus (Nucl Reuniens, RE) / c-fos-GFP activation, Midline Thalamus (PVT) / c-fos-GFP activation, Motor area, primary (MOp) / c-fos-GFP activation, Motor area, secondary (MOs) / c-fos-GFP activation, Nucleus Accumbens (ACB), core / c-fos-GFP activation, Nucleus Accumbens (ACB), shell / c-fos-GFP activation, Nucleus Accumbens (ACB), whole / c-fos-GFP activation, Olfactory tubercle (OT) / c-fos-GFP activation, Orbital cortex ventral (VO) / c-fos-GFP activation, Orbital cx (ORB), lateral / c-fos-GFP activation, Orbital cx (ORB), medial / c-fos-GFP activation, Piriform cx (PIR) / c-fos-GFP activation, Prelimbic cx (PL) / c-fos-GFP activation, RSPd, v, d and agl / c-fos-GFP activation, Red nucleus (RN) / c-fos-GFP activation, Somatosensory cx, primary / c-fos-GFP activation, Striatum, ventro-lateral / c-fos-GFP activation, Superior Colliculus (SC) / c-fos-GFP activation, Temporal cortex / c-fos-GFP activation, Ventromedial Thalamus (caudally) / c-fos-GFP activation, Zona Inserta: haloperidol 0.25, risperidone 1.0, aripiprazole 1.0 mg/kg, vs saline-injected control", "note": "Entries after “also recorded” stand apart in the source; their conditions may differ."}
{"compound": "O=C1CCc2ccc(OCCCCN3CCN(c4cccc(Cl)c4Cl)CC3)cc2N1", "note": "[aripiprazole]", "values": [{"measurement": "brain regions activated (pharmacomap)", "result": "activated a partially overlapping pattern, with more cortical areas, including prominent activation of auditory association and entorhinal areas; also recorded: Parts of the amygdala (AMG), hippocampal formation (HF), and midline thalamus (PVT and RE) also showed activation"}, {"measurement": "c-fos-GFP activation, Anterior cingulate cortex (ACAd)", "result": "up"}, {"measurement": "c-fos-GFP activation, Anterior cingulate cortex (ACAv)", "result": "up"}, {"measurement": "c-fos-GFP activation, Basal, Central, Cortic. Amydgala (AMG)", "result": "up"}, {"measurement": "c-fos-GFP activation, Bed nucleus of Stria Terminalis (BST)", "result": 0}, {"measurement": "c-fos-GFP activation, Caudate-putamen (CP, dorso-medial)", "result": 0}, {"measurement": "c-fos-GFP activation, Caudate-putamen (CP, ventro-medial)", "result": 0}, {"measurement": "c-fos-GFP activation, Caudoputamen (CP, dorsolateral)", "result": "up"}, {"measurement": "c-fos-GFP activation, Caudoputamen (CP, ventrolateral)", "result": 0}, {"measurement": "c-fos-GFP activation, Central medial thalamic nucleus", "result": "up"}, {"measurement": "c-fos-GFP activation, Claustrum (CLA)", "result": "up"}, {"measurement": "c-fos-GFP activation, Dorsomedial hypoth. (HYP)", "result": 0}, {"measurement": "c-fos-GFP activation, Gostatory Cx (GU)", "result": "up"}, {"measurement": "c-fos-GFP activation, Hippocampus: CA1, CA2, CA3 (HF)", "result": "up"}, {"measurement": "c-fos-GFP activation, Hippocampus: DG", "result": "down"}, {"measurement": "c-fos-GFP activation, Hypothalamus, ventromedial nuclei", "result": 0}, {"measurement": "c-fos-GFP activation, Infralimbic cortex (IL)", "result": "up"}, {"measurement": "c-fos-GFP activation, Insular area, agranular", "result": "up"}, {"measurement": "c-fos-GFP activation, Lateral Septum (LS)", "result": 0}, {"measurement": "c-fos-GFP activation, Lateral Spetal Nucl, dorsal part", "result": "up"}, {"measurement": "c-fos-GFP activation, Midline Thalamus (Nucl Reuniens, RE)", "result": "up"}, {"measurement": "c-fos-GFP activation, Midline Thalamus (PVT)", "result": "up"}, {"measurement": "c-fos-GFP activation, Motor area, primary (MOp)", "result": "up"}, {"measurement": "c-fos-GFP activation, Motor area, secondary (MOs)", "result": "up"}, {"measurement": "c-fos-GFP activation, Nucleus Accumbens (ACB), core", "result": "up"}, {"measurement": "c-fos-GFP activation, Nucleus Accumbens (ACB), shell", "result": "up"}, {"measurement": "c-fos-GFP activation, Nucleus Accumbens (ACB), whole", "result": 0}, {"measurement": "c-fos-GFP activation, Olfactory tubercle (OT)", "result": "up"}, {"measurement": "c-fos-GFP activation, Orbital cortex ventral (VO)", "result": 0}, {"measurement": "c-fos-GFP activation, Orbital cx (ORB), lateral", "result": "up"}, {"measurement": "c-fos-GFP activation, Orbital cx (ORB), medial", "result": "up"}, {"measurement": "c-fos-GFP activation, Piriform cx (PIR)", "result": 0}, {"measurement": "c-fos-GFP activation, Prelimbic cx (PL)", "result": "up"}, {"measurement": "c-fos-GFP activation, RSPd, v, d and agl", "result": "up"}, {"measurement": "c-fos-GFP activation, Red nucleus (RN)", "result": "down"}, {"measurement": "c-fos-GFP activation, Somatosensory cx, primary", "result": "up"}, {"measurement": "c-fos-GFP activation, Striatum, ventro-lateral", "result": "up"}, {"measurement": "c-fos-GFP activation, Superior Colliculus (SC)", "result": "up"}, {"measurement": "c-fos-GFP activation, Temporal cortex", "result": "up"}, {"measurement": "c-fos-GFP activation, Ventromedial Thalamus (caudally)", "result": "up"}, {"measurement": "c-fos-GFP activation, Zona Inserta", "result": "up"}]}
{"compound": "Cc1nc2n(c(=O)c1CCN1CCC(c3noc4cc(F)ccc34)CC1)CCCC2", "note": "[risperidone]", "values": [{"measurement": "brain regions activated (pharmacomap)", "result": "activated the prelimbic (PL), orbital (ORB), piriform (PIR) and gustatory (GU) cortices, the dorsal and ventral CP, ACB, claustrum (CLA), and superior colliculus (SC)"}, {"measurement": "c-fos-GFP activation, Anterior cingulate cortex (ACAd)", "result": 0}, {"measurement": "c-fos-GFP activation, Anterior cingulate cortex (ACAv)", "result": 0}, {"measurement": "c-fos-GFP activation, Basal, Central, Cortic. Amydgala (AMG)", "result": 0}, {"measurement": "c-fos-GFP activation, Bed nucleus of Stria Terminalis (BST)", "result": 0}, {"measurement": "c-fos-GFP activation, Caudate-putamen (CP, dorso-medial)", "result": 0}, {"measurement": "c-fos-GFP activation, Caudate-putamen (CP, ventro-medial)", "result": 0}, {"measurement": "c-fos-GFP activation, Caudoputamen (CP, dorsolateral)", "result": "up"}, {"measurement": "c-fos-GFP activation, Caudoputamen (CP, ventrolateral)", "result": "up"}, {"measurement": "c-fos-GFP activation, Central medial thalamic nucleus", "result": 0}, {"measurement": "c-fos-GFP activation, Claustrum (CLA)", "result": "up"}, {"measurement": "c-fos-GFP activation, Dorsomedial hypoth. (HYP)", "result": 0}, {"measurement": "c-fos-GFP activation, Gostatory Cx (GU)", "result": "up"}, {"measurement": "c-fos-GFP activation, Hippocampus: CA1, CA2, CA3 (HF)", "result": 0}, {"measurement": "c-fos-GFP activation, Hippocampus: DG", "result": 0}, {"measurement": "c-fos-GFP activation, Hypothalamus, ventromedial nuclei", "result": "down"}, {"measurement": "c-fos-GFP activation, Infralimbic cortex (IL)", "result": 0}, {"measurement": "c-fos-GFP activation, Insular area, agranular", "result": 0}, {"measurement": "c-fos-GFP activation, Lateral Septum (LS)", "result": 0}, {"measurement": "c-fos-GFP activation, Lateral Spetal Nucl, dorsal part", "result": 0}, {"measurement": "c-fos-GFP activation, Midline Thalamus (Nucl Reuniens, RE)", "result": 0}, {"measurement": "c-fos-GFP activation, Midline Thalamus (PVT)", "result": 0}, {"measurement": "c-fos-GFP activation, Motor area, primary (MOp)", "result": 0}, {"measurement": "c-fos-GFP activation, Motor area, secondary (MOs)", "result": 0}, {"measurement": "c-fos-GFP activation, Nucleus Accumbens (ACB), core", "result": "up"}, {"measurement": "c-fos-GFP activation, Nucleus Accumbens (ACB), shell", "result": 0}, {"measurement": "c-fos-GFP activation, Nucleus Accumbens (ACB), whole", "result": 0}, {"measurement": "c-fos-GFP activation, Olfactory tubercle (OT)", "result": 0}, {"measurement": "c-fos-GFP activation, Orbital cortex ventral (VO)", "result": "up"}, {"measurement": "c-fos-GFP activation, Orbital cx (ORB), lateral", "result": "up"}, {"measurement": "c-fos-GFP activation, Orbital cx (ORB), medial", "result": "up"}, {"measurement": "c-fos-GFP activation, Piriform cx (PIR)", "result": "up"}, {"measurement": "c-fos-GFP activation, Prelimbic cx (PL)", "result": "down"}, {"measurement": "c-fos-GFP activation, RSPd, v, d and agl", "result": 0}, {"measurement": "c-fos-GFP activation, Red nucleus (RN)", "result": 0}, {"measurement": "c-fos-GFP activation, Somatosensory cx, primary", "result": 0}, {"measurement": "c-fos-GFP activation, Striatum, ventro-lateral", "result": 0}, {"measurement": "c-fos-GFP activation, Superior Colliculus (SC)", "result": 0}, {"measurement": "c-fos-GFP activation, Temporal cortex", "result": 0}, {"measurement": "c-fos-GFP activation, Ventromedial Thalamus (caudally)", "result": 0}, {"measurement": "c-fos-GFP activation, Zona Inserta", "result": 0}]}
